Data from PMC11121495, “Blap-6, a Novel Antifungal Peptide from the Chinese Medicinal Beetle Blaps rhynchopetera against Cryptococcus neoformans” (International Journal of Molecular Sciences, 2024).
≈ marks a conversion by molar mass, not a printed value. Like-named read-outs stand apart in the source and are kept apart here. Where no end group is shown, it is not given here.

Columns and labels:
[1] = tested on: C. neoformans; test: microbe, parasite or virus in culture; format: cell-based, Cryptococcus neoformans (ATCC 32045)
From the text: (§1) These standard strains of Escherichia coli (E. coli, ATCC 8739), Staphylococcus aureus (S. aureus, ATCC 6538), Pseudomonas aeruginosa (P. aeruginosa, ATCC 27853), Acinetobacter baumannii (A. baumannii, ATCC 1968), Candida albicans (ATCC 10231), and the clinical strain of Methicillin-resistant Staphylococcus aureus (MRSA, MRSA-Z) were obtained from Kunming Medical University. The standard strain of C. neoformans (ATCC 32045) was purchased from Shanghai Yingxin Laboratory Co., Ltd. (CAS NO. YXJ50058). Different strains of E. coli, S. aureus, MRSA, P. aeruginosa, and A. baumannii were cultured with shaking at 37 °C in Luria–Bertani (LB) medium. C. neoformans was cultured at 35 °C in Sabouraud Dextrose Agar (SDA) medium according to the manufacturer’s instructions.
(§2) According to Clinical and Laboratory Standards Institute (CLSI) protocols, the minimum inhibitory concentration (MIC) is the minimum drug concentration at which antibiotics inhibit the growth and reproduction of strains. The different strains were grown in their corresponding media at 35 °C or 37 °C until they entered the exponential growth phase. Fluconazole and amphotericin B were used as positive controls, and sterile 0.9% NaCl was used as a negative control. The peptides were diluted to various concentrations in sterile saline. According to 1 OD = 1 × 10^9 CFU/mL, the above bacterial solution was diluted to 2 × 10^5 CFU/mL with the corresponding medium. In advance, 100 μL of normal saline was added to a sterile 96-well plate, and 200 μL of the sample to be tested was added to the first well. The sample to be tested was subjected to double gradient dilution, and then 100 μL of bacterial solution with a concentration of 2 × 10^5 was added to each well. It was cultured at 35 °C or 37 °C for different times. The light absorption value of the bacterial solution at 600 nm was detected by a microplate reader (Epoch Etock, Biotek, Winooski, VT, USA), and the average concentration of the samples in the pores and adjacent pores that could not detect microbial growth was used as the MIC value.

[2] = tested on: C. albicans; test: microbe, parasite or virus in culture; format: cell-based, Candida albicans (ATCC 10231)
From the text: as §1, §2

[3] = tested on: E. coli; test: microbe, parasite or virus in culture; format: cell-based, Escherichia coli (ATCC 8739)
From the text: as §1, §2

[4] = tested on: MRSA; test: microbe, parasite or virus in culture; format: cell-based
From the text: as §1, §2

[5] = tested on: A. baumannii; test: microbe, parasite or virus in culture; format: cell-based, Acinetobacter baumannii (ATCC 1968)
From the text: as §1, §2

[6] = tested on: P. aeruginosa; test: microbe, parasite or virus in culture; format: cell-based, Pseudomonas aeruginosa (ATCC 27853)
From the text: as §1, §2

[7] = tested on: S. aureus; test: microbe, parasite or virus in culture; format: cell-based, Staphylococcus aureus (ATCC 6538)
From the text: as §1, §2

[8] = tested on: C. neoformans ATCC 32045; test: Fungal-killing kinetics; format: cell-based, Cryptococcus neoformans; conditions: positive control; concentration not stated in the sentence (1×, 5×, 10 × MIC tested)
Procedure: The single colony of C. neoformans ATCC 32045 was selected and cultured at 180 rpm and 37 °C, washed three times with normal saline, and then resuspended, and the fungal solution was diluted to 1 × 10^6 CFU/mL with SDB medium. The positive control was fluconazole, and the negative control was normal saline. […] The fungal liquid after adding the sample was quickly put into the 37 °C constant temperature incubator, and the shaking culture was carried out at 180 rpm. […] The plate was placed in a constant temperature incubator for inverted culture for 72 h at 37 °C, and then the single colony on the plate was counted.

[9] = Cryptococcus neoformans, ATCC32045, ATCC 32045, double gradient dilution, 2 × 10^5 CFU/mL, 35 °C, OD 600 nm, mean of three independent experiments
[10] = Candida albicans, ATCC10231, ATCC 10231, double gradient dilution, 2 × 10^5 CFU/mL, OD 600 nm, mean of three independent experiments

Work on `C[C@@H]1[C@H](O)[C@@H](C)/C=C/C=C/C=C/C=C/C=C/C=C/C=C/[C@H](O[C@@H]2O[C@H](C)[C@@H](O)[C@H](N)[C@@H]2O)C[C@@H]2O[C@](O)(C[C@@H](O)C[C@@H](O)[C@H](O)CC[C@@H](O)C[C@@H](O)CC(=O)O[C@H]1C)C[C@H](O)[C@H]2C(=O)O` [Amphotericin B, reference compound] yielded an MIC [1, 9] of 0.05 µM (≈ 0.0462 µg/mL) and an MIC [2, 10] of 0.05 µM (≈ 0.0462 µg/mL).

`CC1(C)S[C@@H]2[C@H](NC(=O)[C@H](N)c3ccccc3)C(=O)N2[C@H]1C(=O)O` [Ampicillin, reference compound] was tested, and the MIC ([3]; Escherichia coli, ATCC8739, ATCC 8739, double gradient dilution, 2 × 10^5 CFU/mL, LB, 37 °C, OD 600 nm, mean of three independent experiments) was 31.6 µM (≈ 11 µg/mL), the MIC ([4]; Staphylococcus aureus, clinical strain MRSA-Z, double gradient dilution, 2 × 10^5 CFU/mL, LB, 37 °C, OD 600 nm, mean of three independent experiments) was 126 µM (≈ 44.1 µg/mL) and the MIC ([5]; Acinetobacter baumannii, ATCC1968, ATCC 1968, double gradient dilution, 2 × 10^5 CFU/mL, LB, 37 °C, OD 600 nm, mean of three independent experiments) was 31.6 µM (≈ 11 µg/mL). It also gave an MIC ([6]; Pseudomonas aeruginosa, ATCC27853, ATCC 27853, double gradient dilution, 2 × 10^5 CFU/mL, LB, 37 °C, OD 600 nm, mean of three independent experiments) of 31.6 µM (≈ 11 µg/mL) and an MIC ([7]; Staphylococcus aureus, ATCC6538, ATCC 6538, double gradient dilution, 2 × 10^5 CFU/mL, LB, 37 °C, OD 600 nm, mean of three independent experiments) of 63.1 µM (≈ 22.1 µg/mL).

`OC(Cn1cncn1)(Cn1cncn1)c1ccc(F)cc1F` [Fluconazole, reference compound] was tested, and the “time required for fungicidal rate to reach more than 90%” value [8] was 360 min, the MIC [1, 9] was 6.36 µM (≈ 1.95 µg/mL) and the MIC [2, 10] was 0.61 µM (≈ 0.187 µg/mL).

Compound FIKKMLGNFSNYVRRPGKR [blap-9] has an MIC [3] of 81.10 µM, an MIC [4] of 81.10 µM and an MIC [1] of 81.10 µM. The MIC [2] was 40.55 µM, the MIC [5] was 81.10 µM and the MIC [6] was 81.10 µM. The MIC [7] was 81.10 µM.

In the case of KRALSLPKMREDRLLYRGRA [blap-7], the MIC [1] is reported as 312.50 µM and the MIC [2] is reported as 156.30 µM.

With RWKERKKWQKRWKRKKG [blap-8] the MIC [3] was 312.50 µM, the MIC [4] was 156.30 µM and the MIC [1] was 19.53 µM. The MIC [2] was 19.53 µM, the MIC [6] was 7.81 µM and the MIC [7] was 156.3 µM.

With RWNTSRWLRL [blap-10] the MIC [4] was 19.54 µM, the MIC [1] was 312.5 µM and the MIC [2] was 156.30 µM. It also gave an MIC [6] of 312.50 µM.
